Read-outs that look alike come from different tables or passages of the source.
What was measured:
[1] = Biodegradability (OECD 306)
[2] = Shell wheel test (corrosion inhibition); conditions: carbon steel coupons in saltwater/petroleum mixture, pH 3.5, 70° C., 24 hours; 50 ppm of a 40% solution of the inhibitor; from mass decrease based on a blank value
Protocol: The inventive compounds were tested as corrosion inhibitors in the Shell wheel test. Coupons of carbon steel (DIN 1.1203 with surface area 15 cm^2) were immersed into a saltwater/petroleum mixture (9:1.5% NaCl solution adjusted to pH 3.5 with acetic acid) and exposed to this medium at a peripheral speed of 40 rpm at 70° C. for 24 hours. The dosage of the inhibitor was 50 ppm of a 40% solution of the inhibitor. The protection values were calculated from the mass decrease of the coupons based on a blank value.

[3] = LPR test (test conditions analogous to ASTM D 2776); parameters: concentration or dose not given beside the values
Protocol: The products were also tested in the LPR test (test conditions analogous to ASTM D 2776).

Shaking foam test = format: physicochemical; conditions: 50 ml of a 3% aqueous solution in demineralized water shaken 20 times within 10 seconds; graded weakly foaming, foaming or highly foaming
Skeletonema costatum = assay: Toxicity (EC50 Skeletonema costatum); format: cell-based

With CCCCCCCCCCCC(=O)NCC(=O)[O-].[Na+] [comparative 2, N-lauroylglycine sodium salt, reference compound] the Biodegradability ([1]; OECD 306) was 44.5%, the Ø % protection [2] was 45% and the “Protection after 10 min” value [3] was 15.4%. For the same compound, the “Protection after 30 min” value [3] was 35.2%, the “Protection after 60 min” value [3] was 42.9% and the Foaming behavior (Shaking foam test) was “highly foaming”. For the same compound, the EC50 (Skeletonema costatum) was 8.5 µg/mL.

For CCCCCCCCNC(CCSC)C(=O)O.NCCO (racemic) [compound from example 1, N-Octyl-DL-methionine monoethanolammonium salt], the Biodegradability [1] was 92.4%, the Ø % protection [2] was 63% and the “Protection after 10 min” value [3] was 60.5%. The “Protection after 30 min” value [3] was 75.3%, the “Protection after 60 min” value [3] was 88.4% and the Foaming behavior (Shaking foam test) was “weakly foaming”. For the same compound, the “Toxicity EC50” value (Skeletonema costatum) was 44.5 µg/mL.

With “N-Cocoyl-DL-methionine N,N-diethyl-(2-hydroxyethyl)-ammonium salt [compound from example 6]” the Ø % protection [2] was 83%, the “Protection after 10 min” value [3] was 92.0% and the “Protection after 30 min” value [3] was 96.7%. For the same compound, the “Protection after 60 min” value [3] was 99.0% and the “Toxicity EC50” value (Skeletonema costatum) was 15.4 µg/mL.

In the case of CCCCCCCC/C=C\CCCCCCCCNC(CCSC)C(=O)O.OCCN(CCO)CCO (racemic) [compound from example 8, N-Oleyl-DL-methionine triethanolammonium salt], the Biodegradability [1] is reported as 85.4%, the Ø % protection [2] is reported as 85% and the “Protection after 10 min” value [3] is reported as 80.1%. The “Protection after 30 min” value [3] was 94.5%, the “Protection after 60 min” value [3] was 98.6% and the Foaming behavior (Shaking foam test) was “weakly foaming”. For the same compound, the “Toxicity EC50” value (Skeletonema costatum) was 13.6 µg/mL.

For CCCCCCCCCCCCCC(=O)N[C@@H](CC(=O)[O-])C(=O)[O-].[Na+].[Na+] [comparative 3, N-myristoyl-L-aspartic acid disodium salt, reference compound], the Biodegradability ([1]; OECD 306) was 50.3%, the Ø % protection [2] was 38% and the “Protection after 10 min” value [3] was 20.0%. For the same compound, the “Protection after 30 min” value [3] was 42.6%, the “Protection after 60 min” value [3] was 47.1% and the Foaming behavior (Shaking foam test) was “highly foaming”. It also gave an EC50 (Skeletonema costatum) of 9.5 µg/mL.

With “N-Cocoyl-DL-methionine morpholinium salt [compound from example 5]” the Ø % protection [2] was 85%, the “Protection after 10 min” value [3] was 90.3% and the “Protection after 30 min” value [3] was 94.2%. For the same compound, the “Protection after 60 min” value [3] was 98.9%.

For “N-Dodecyl-DL-methionine cyclohexylammonium salt [compound from example 3]”, the Biodegradability ([1]; OECD 306) was 84.0%, the Ø % protection [2] was 78% and the “Protection after 10 min” value [3] was 76.4%. For the same compound, the “Protection after 30 min” value [3] was 88.4%, the “Protection after 60 min” value [3] was 97.2% and the Foaming behavior (Shaking foam test) was “weakly foaming”. The “Toxicity EC50” value (Skeletonema costatum) was 22.3 µg/mL.

In the case of “N-Oleyl-DL-methionine 2-(2-hydroxyethoxy)ethylammonium salt [compound from example 7]”, the Ø % protection [2] is reported as 82%, the “Protection after 10 min” value [3] is reported as 78.5% and the “Protection after 30 min” value [3] is reported as 92.9%. The “Protection after 60 min” value [3] was 98.5% and the Foaming behavior (Shaking foam test) was “weakly foaming”.

With CCCCCCCCNC(CCSC)C(=O)O.OCCN(CCO)CCO (racemic) [compound from example 2, N-Octyl-DL-methionine triethanolammonium salt] the Ø % protection [2] was 72%, the “Protection after 10 min” value [3] was 62.9% and the “Protection after 30 min” value [3] was 76.1%. For the same compound, the “Protection after 60 min” value [3] was 90.0% and the Foaming behavior (Shaking foam test) was “weakly foaming”.

With “N-Dodecyl-DL-methionine dibutylammonium salt [compound from example 4]” the Ø % protection [2] was 80%, the “Protection after 10 min” value [3] was 74.8% and the “Protection after 30 min” value [3] was 87.3%. For the same compound, the “Protection after 60 min” value [3] was 96.8% and the Foaming behavior (Shaking foam test) was “weakly foaming”.

Reference: patent US20100234592A1, “Corrosion Inhibitors Having Increased Biodegradability and Reduced Toxicity” (priority 2006, published 2010)
